Reference: ChEMBL document CHEMBL2311281, “Novel berberine triazoles: synthesis, antimicrobial evaluation and competitive interactions with metal ions to human serum albumin” (Bioorg Med Chem Lett, 2013)
Values after ≈ are worked out from the molar mass of the structure shown.

Experiments:
[1] = tested on: Proteus vulgaris; test: Antibacterial activity against Proteus vulgaris by two fold serial dilution method; type: functional
[2] = tested on: Pseudomonas aeruginosa; test: Antibacterial activity against Pseudomonas aeruginosa by two fold serial dilution method; type: functional
[3] = tested on: Shigella dysenteriae; test: Antibacterial activity against Shigella dysenteriae by two fold serial dilution method; type: functional
[4] = tested on: Escherichia coli; test: Antibacterial activity against Escherichia coli DH52 by two fold serial dilution method; type: functional
[5] = tested on: Bacillus subtilis; test: Antibacterial activity against Bacillus subtilis by two fold serial dilution method; type: functional
[6] = tested on: Micrococcus luteus; test: Antibacterial activity against Micrococcus luteus ATCC 4698 by two fold serial dilution method; type: functional
[7] = tested on: Staphylococcus aureus; test: Antibacterial activity against Staphylococcus aureus ATCC 25923 by two fold serial dilution method; type: functional
[8] = tested on: Staphylococcus aureus; test: Antibacterial activity against methicillin-resistant Staphylococcus aureus N315 by two fold serial dilution method; type: functional
[9] = tested on: Staphylococcus aureus; test: Potency index, ratio of MIC for berberine to MIC compound against methicillin-resistant Staphylococcus aureus N315 by two fold serial dilution method; type: functional
[10] = tested on: Staphylococcus aureus; test: Potency index, ratio of MIC for chloromycin to MIC compound against methicillin-resistant Staphylococcus aureus N315 by two fold serial dilution method; type: functional
[11] = target: T1, Albumin (Homo sapiens, UniProt P02768); test: Ratio of binding affinity to HSA in presence of Fe3+ ions to binding affinity to HSA in absence of metal ions; type: ADME; details: isolated protein
T1 sequence (P02768 whole entry): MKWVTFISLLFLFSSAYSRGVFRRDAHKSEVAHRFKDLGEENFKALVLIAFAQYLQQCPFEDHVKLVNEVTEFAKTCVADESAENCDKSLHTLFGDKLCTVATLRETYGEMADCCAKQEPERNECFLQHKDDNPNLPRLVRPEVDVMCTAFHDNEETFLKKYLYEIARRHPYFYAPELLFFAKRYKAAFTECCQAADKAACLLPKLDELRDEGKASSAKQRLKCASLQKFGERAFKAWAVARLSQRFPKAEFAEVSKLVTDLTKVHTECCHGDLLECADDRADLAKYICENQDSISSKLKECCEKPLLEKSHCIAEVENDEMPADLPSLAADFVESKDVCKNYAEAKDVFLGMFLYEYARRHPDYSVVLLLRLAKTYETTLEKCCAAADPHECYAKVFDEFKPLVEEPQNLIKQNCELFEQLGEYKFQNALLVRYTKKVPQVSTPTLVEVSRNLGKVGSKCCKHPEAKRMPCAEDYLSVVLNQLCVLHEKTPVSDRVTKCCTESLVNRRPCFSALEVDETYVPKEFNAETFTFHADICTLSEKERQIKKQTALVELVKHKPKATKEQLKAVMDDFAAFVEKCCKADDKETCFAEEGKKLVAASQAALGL

[12] = target: T1, Albumin; test: Ratio of binding affinity to HSA in presence of Mg2+ ions to binding affinity to HSA in absence of metal ions; type: ADME; details: isolated protein
[13] = target: T1, Albumin; test: Ratio of binding affinity to HSA in presence of Zn2+ ions to binding affinity to HSA in absence of metal ions; type: ADME; details: isolated protein
[14] = target: T1, Albumin; test: Ratio of binding affinity to HSA in presence of Pb2+ ions to binding affinity to HSA in absence of metal ions; type: ADME; details: isolated protein
[15] = target: T1, Albumin; test: Ratio of binding affinity to HSA in presence of Ni2+ ions to binding affinity to HSA in absence of metal ions; type: ADME; details: isolated protein
[16] = target: T1, Albumin; test: Ratio of binding affinity to HSA in presence of K+ ions to binding affinity to HSA in absence of metal ions; type: ADME; details: isolated protein
[17] = target: T1, Albumin; test: Ratio of binding affinity to HSA in presence of La3+ ions to binding affinity to HSA in absence of metal ions; type: ADME; details: isolated protein
[18] = target: T1, Albumin; test: Ratio of binding affinity to HSA in presence of Cu2+ ions to binding affinity to HSA in absence of metal ions; type: ADME; details: isolated protein
[19] = target: T1, Albumin; test: Ratio of binding affinity to HSA in presence of Ce3+ ions to binding affinity to HSA in absence of metal ions; type: ADME; details: isolated protein
[20] = target: T1, Albumin; test: Ratio of binding affinity to HSA in presence of Ca2+ ions to binding affinity to HSA in absence of metal ions; type: ADME; details: isolated protein

Structure (SMILES) | MIC [1] [µg/mL] | MIC [2] [µg/mL] | MIC [3] [µg/mL] | MIC [4] [µg/mL] | MIC [5] [µg/mL] | MIC [6] [µg/mL] | MIC [7] [µg/mL] | MIC [8] [µg/mL] | Ratio [9] | Ratio [10] | Ratio [11] | Ratio [12] | Ratio [13] | Ratio [14] | Ratio [15] | Ratio [16] | Ratio [17] | Ratio [18] | Ratio [19] | Ratio [20]
COc1ccc2cc3[n+](cc2c1OCCN(CCn1cncn1)Cc1ccc(Cl)cc1)CCc1cc2c(cc1-3)OCO2.[Cl-] | 32 | 16 | 8 | 16 | 8 | 16 | 16 | 16 | – | – | – | – | – | – | – | – | – | – | – | –
COc1ccc2cc3[n+](cc2c1OCCN(CCn1cncn1)Cc1cccc(Cl)c1)CCc1cc2c(cc1-3)OCO2.[Cl-] | 32 | 32 | 32 | 8 | 16 | 32 | 8 | 32 | – | – | – | – | – | – | – | – | – | – | – | –
COc1ccc2cc3[n+](cc2c1OCCN(CCn1cncn1)Cc1ccccc1Cl)CCc1cc2c(cc1-3)OCO2.[Cl-] | 16 | 32 | 32 | 8 | 8 | 32 | 8 | 16 | – | – | – | – | – | – | – | – | – | – | – | –
COc1ccc2cc3[n+](cc2c1OCCN(CCn1cncn1)Cc1ccc(Cl)c(Cl)c1)CCc1cc2c(cc1-3)OCO2.[Cl-] | 8 | 16 | 16 | 8 | 8 | 16 | 8 | 16 | – | – | – | – | – | – | – | – | – | – | – | –
COc1ccc2cc3[n+](cc2c1OCCN(CCn1cncn1)Cc1ccc(Cl)cc1Cl)CCc1cc2c(cc1-3)OCO2.[Cl-] | 8 | 16 | 8 | 4 | 8 | 16 | 8 | 8 | 16 | 2 | – | – | – | – | – | – | – | – | – | –
COc1ccc2cc3[n+](cc2c1OCCN(CCn1cncn1)Cc1cccc(F)c1)CCc1cc2c(cc1-3)OCO2.[Cl-] | 4 | 8 | 4 | 8 | 8 | 16 | 8 | 8 | 16 | 2 | – | – | – | – | – | – | – | – | – | –
COc1ccc2cc3[n+](cc2c1OCCN(CCn1cncn1)Cc1ccccc1F)CCc1cc2c(cc1-3)OCO2.[Cl-] | 4 | 8 | 4 | 4 | 8 | 8 | 4 | 8 | 16 | 2 | – | – | – | – | – | – | – | – | – | –
Clc1ccc(CN(CCBr)CCn2cncn2)cc1 | 512 (≈ 1490 µM) | 256 (≈ 745 µM) | 256 (≈ 745 µM) | 128 (≈ 372 µM) | 256 (≈ 745 µM) | 512 (≈ 1490 µM) | 128 (≈ 372 µM) | 256 (≈ 745 µM) | – | – | – | – | – | – | – | – | – | – | – | –
COc1ccc2cc3[n+](cc2c1OCCN(CCn1cncn1)Cc1ccc(F)cc1F)CCc1cc2c(cc1-3)OCO2.[Cl-] | 2 | 8 | 4 | 4 | 8 | 8 | 4 | 8 | 16 | 2 | 1.116 | 1.064 | 0.871 | 0.963 | 0.839 | 0.943 | 0.883 | 0.972 | 0.998 | 0.956
Clc1cccc(CN(CCBr)CCn2cncn2)c1 | > 512 | 256 (≈ 745 µM) | 256 (≈ 745 µM) | 128 (≈ 372 µM) | 256 (≈ 745 µM) | 64 (≈ 186 µM) | 128 (≈ 372 µM) | 256 (≈ 745 µM) | – | – | – | – | – | – | – | – | – | – | – | –
Clc1ccc(CN(CCBr)CCn2cncn2)c(Cl)c1 | 128 (≈ 339 µM) | 128 (≈ 339 µM) | 128 (≈ 339 µM) | 32 (≈ 84.6 µM) | 256 (≈ 677 µM) | 32 (≈ 84.6 µM) | 64 (≈ 169 µM) | 256 (≈ 677 µM) | – | – | – | – | – | – | – | – | – | – | – | –
Clc1ccc(CN(CCBr)CCn2cncn2)cc1Cl | 256 (≈ 677 µM) | 128 (≈ 339 µM) | 128 (≈ 339 µM) | 32 (≈ 84.6 µM) | 256 (≈ 677 µM) | 32 (≈ 84.6 µM) | 64 (≈ 169 µM) | 256 (≈ 677 µM) | – | – | – | – | – | – | – | – | – | – | – | –
Clc1ccccc1CN(CCBr)CCn1cncn1 | 512 (≈ 1490 µM) | 128 (≈ 372 µM) | 256 (≈ 745 µM) | 64 (≈ 186 µM) | 256 (≈ 745 µM) | 64 (≈ 186 µM) | 128 (≈ 372 µM) | 256 (≈ 745 µM) | – | – | – | – | – | – | – | – | – | – | – | –
Fc1cccc(CN(CCBr)CCn2cncn2)c1 | 256 (≈ 782 µM) | 128 (≈ 391 µM) | 64 (≈ 196 µM) | 64 (≈ 196 µM) | 256 (≈ 782 µM) | 64 (≈ 196 µM) | 64 (≈ 196 µM) | 128 (≈ 391 µM) | – | – | – | – | – | – | – | – | – | – | – | –
Fc1ccc(CN(CCBr)CCn2cncn2)c(F)c1 | 128 (≈ 371 µM) | 128 (≈ 371 µM) | 64 (≈ 185 µM) | 32 (≈ 92.7 µM) | 256 (≈ 742 µM) | 32 (≈ 92.7 µM) | 64 (≈ 185 µM) | 128 (≈ 371 µM) | – | – | – | – | – | – | – | – | – | – | – | –
Fc1ccccc1CN(CCBr)CCn1cncn1 | 256 (≈ 782 µM) | 128 (≈ 391 µM) | 64 (≈ 196 µM) | 32 (≈ 97.8 µM) | 256 (≈ 782 µM) | 64 (≈ 196 µM) | 64 (≈ 196 µM) | 128 (≈ 391 µM) | – | – | – | – | – | – | – | – | – | – | – | –
COc1ccc2cc3[n+](cc2c1OC)CCc1cc2c(cc1-3)OCO2 [BERBERINE] | 128 | 256 | 256 | > 512 | > 512 | > 512 | 512 | 128 | – | – | – | – | – | – | – | – | – | – | – | –
O=C(N[C@H](CO)[C@H](O)c1ccc([N+](=O)[O-])cc1)C(Cl)Cl [CHLORAMPHENICOL] | 32 (≈ 99 µM) | 32 (≈ 99 µM) | 32 (≈ 99 µM) | 32 (≈ 99 µM) | 32 (≈ 99 µM) | 8 (≈ 24.8 µM) | 16 (≈ 49.5 µM) | 16 (≈ 49.5 µM) | – | – | – | – | – | – | – | – | – | – | – | –
CCn1cc(C(=O)O)c(=O)c2cc(F)c(N3CCNCC3)cc21 [NORFLOXACIN] | 8 (≈ 25.1 µM) | 16 (≈ 50.1 µM) | 4 (≈ 12.5 µM) | 16 (≈ 50.1 µM) | 1 (≈ 3.13 µM) | 2 (≈ 6.26 µM) | 0.5 (≈ 1.57 µM) | 8 (≈ 25.1 µM) | – | – | – | – | – | – | – | – | – | – | – | –
